Experimental data taken from PubChem BioAssay (NCI).
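Exposure lasted 48 hours, with cells grown in 96-well plates and compounds tested at five concentrations. GI50 is the concentration that inhibits growth by half. TGI marks complete inhibition of growth.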

Key:
Test in all cases: growth of human tumour cells (NCI), 48 h
U251 CNS = test system: U251 CNS
LOX IMVI melanoma = test system: LOX IMVI melanoma
SK-MEL-5 melanoma = test system: SK-MEL-5 melanoma
TK-10 renal = test system: TK-10 renal
NCI-H226 lung = test system: NCI-H226 lung
OVCAR-8 ovarian = test system: OVCAR-8 ovarian
HT29 colon = test system: HT29 colon
SF-268 CNS = test system: SF-268 CNS
OVCAR-4 ovarian = test system: OVCAR-4 ovarian
OVCAR-5 ovarian = test system: OVCAR-5 ovarian
DU-145 prostate = test system: DU-145 prostate
SK-MEL-28 melanoma = test system: SK-MEL-28 melanoma
UACC-62 melanoma = test system: UACC-62 melanoma
SF-539 CNS = test system: SF-539 CNS
HCC-2998 colon = test system: HCC-2998 colon
UO-31 renal = test system: UO-31 renal
HL-60(TB) leukemia = test system: HL-60(TB) leukemia
T-47D breast = test system: T-47D breast
HCT-15 colon = test system: HCT-15 colon
SK-OV-3 ovarian = test system: SK-OV-3 ovarian
MDA-MB-435 = test system: MDA-MB-435
NCI-H522 lung = test system: NCI-H522 lung
CCRF-CEM leukemia = test system: CCRF-CEM leukemia
MOLT-4 leukemia = test system: MOLT-4 leukemia
K-562 leukemia = test system: K-562 leukemia
CAKI-1 renal = test system: CAKI-1 renal
A549 NSCLC = test system: A549 NSCLC
SN12C renal = test system: SN12C renal
RPMI-8226 leukemia = test system: RPMI-8226 leukemia
HCT-116 colon = test system: HCT-116 colon
NCI-H23 lung = test system: NCI-H23 lung
IGROV1 ovarian = test system: IGROV1 ovarian
SR leukemia = test system: SR leukemia
EKVX NSCLC = test system: EKVX NSCLC
MALME-3M melanoma = test system: MALME-3M melanoma
KM12 colon = test system: KM12 colon
MCF7 breast = test system: MCF7 breast
NCI/ADR-RES ovarian = test system: NCI/ADR-RES ovarian
COLO 205 colon = test system: COLO 205 colon
RXF 393 renal = test system: RXF 393 renal
PC-3 prostate = test system: PC-3 prostate
MDA-MB-231 breast = test system: MDA-MB-231 breast
SW-620 colon = test system: SW-620 colon
HOP-62 NSCLC = test system: HOP-62 NSCLC
SF-295 CNS = test system: SF-295 CNS
UACC-257 melanoma = test system: UACC-257 melanoma
786-0 renal = test system: 786-0 renal
SNB-19 CNS = test system: SNB-19 CNS
M14 melanoma = test system: M14 melanoma
HS 578T breast = test system: HS 578T breast
OVCAR-3 ovarian = test system: OVCAR-3 ovarian
SNB-75 CNS = test system: SNB-75 CNS
BT-549 breast = test system: BT-549 breast
NCI-H460 lung = test system: NCI-H460 lung
SK-MEL-2 melanoma = test system: SK-MEL-2 melanoma
ACHN renal = test system: ACHN renal
HOP-92 NSCLC = test system: HOP-92 NSCLC
A498 renal = test system: A498 renal

## COc1ccc(/C=C2\CC(C)CC3C2=NN(C(C)=O)C3c2ccc(OC)c(OC)c2)cc1OC (stereo unspecified)
U251 CNS
  GI50: 14.3 µM
  TGI: 28 µM
LOX IMVI melanoma
  GI50: 17.7 µM
  TGI: 34.8 µM
SK-MEL-5 melanoma
  GI50: 12.7 µM
  TGI: 27.4 µM
TK-10 renal
  GI50: 65 µM
  TGI: > 100 µM
NCI-H226 lung
  GI50: 18.8 µM
  TGI: > 100 µM
OVCAR-8 ovarian
  GI50: 23.5 µM
  TGI: > 100 µM
HT29 colon
  GI50: 22.4 µM
  TGI: > 100 µM
SF-268 CNS
  GI50: 14.6 µM
  TGI: 31.8 µM
OVCAR-4 ovarian
  GI50: 19.7 µM
  TGI: 84.3 µM
OVCAR-5 ovarian
  GI50: 17.5 µM
  TGI: 33.8 µM
DU-145 prostate
  GI50: 19.7 µM
  TGI: 47.8 µM
SK-MEL-28 melanoma
  GI50: 21.8 µM
  TGI: 46.9 µM
UACC-62 melanoma
  GI50: 16.2 µM
  TGI: 33.3 µM
SF-539 CNS
  GI50: 20.2 µM
  TGI: 37.8 µM
HCC-2998 colon
  GI50: 12 µM
  TGI: 24.3 µM
UO-31 renal
  GI50: 13.3 µM
  TGI: 29.6 µM
HL-60(TB) leukemia
  GI50: 12.6 µM
  TGI: 52.1 µM
T-47D breast
  GI50: 2.68 µM
  TGI: 9.42 µM
HCT-15 colon
  GI50: 15.4 µM
  TGI: 32.8 µM
SK-OV-3 ovarian
  GI50: 31 µM
  TGI: 75.7 µM
MDA-MB-435
  GI50: 18.6 µM
  TGI: 39.4 µM
NCI-H522 lung
  GI50: 14.5 µM
  TGI: 40.4 µM
CCRF-CEM leukemia
  GI50: 20.8 µM
  TGI: 68.8 µM
MOLT-4 leukemia
  GI50: 12.6 µM
  TGI: 43.6 µM
K-562 leukemia
  GI50: 13 µM
  TGI: > 100 µM
CAKI-1 renal
  GI50: 53.3 µM
  TGI: > 100 µM
A549 NSCLC
  GI50: 18.7 µM
  TGI: 77.8 µM
SN12C renal
  GI50: 22.7 µM
  TGI: 62.3 µM
RPMI-8226 leukemia
  GI50: 8.19 µM
  TGI: 32 µM
HCT-116 colon
  GI50: 13.7 µM
  TGI: 26.6 µM
NCI-H23 lung
  GI50: 14.9 µM
  TGI: 29.3 µM
IGROV1 ovarian
  GI50: 20.2 µM
  TGI: 50.6 µM
SR leukemia
  GI50: 22.9 µM
  TGI: 74.4 µM
EKVX NSCLC
  GI50: 19.2 µM
  TGI: 70.1 µM
MALME-3M melanoma
  GI50: 20.1 µM
  TGI: 36.3 µM
KM12 colon
  GI50: 19.7 µM
  TGI: 42.1 µM
MCF7 breast
  GI50: 14.4 µM
  TGI: 30.6 µM
NCI/ADR-RES ovarian
  GI50: 12.8 µM
  TGI: 43 µM
COLO 205 colon
  GI50: 11.1 µM
  TGI: 27.7 µM
RXF 393 renal
  GI50: 17.9 µM
  TGI: 39 µM
PC-3 prostate
  GI50: 13.8 µM
  TGI: > 100 µM
MDA-MB-231 breast
  GI50: 24.5 µM
  TGI: > 100 µM
SW-620 colon
  GI50: 26.1 µM
  TGI: 67.1 µM
HOP-62 NSCLC
  GI50: 17.1 µM
  TGI: 37.2 µM
SF-295 CNS
  GI50: 19.9 µM
  TGI: 50.2 µM
UACC-257 melanoma
  GI50: 18.1 µM
  TGI: 33.9 µM
786-0 renal
  GI50: 12.9 µM
  TGI: 27.4 µM
SNB-19 CNS
  GI50: 17.7 µM
  TGI: 39.4 µM
M14 melanoma
  GI50: 15.1 µM
  TGI: 28.7 µM
HS 578T breast
  GI50: 26.2 µM
  TGI: 61.3 µM
OVCAR-3 ovarian
  GI50: 18 µM
  TGI: 46 µM
SNB-75 CNS
  GI50: 24.8 µM
  TGI: 54.3 µM
BT-549 breast
  GI50: 19 µM
  TGI: 37.9 µM
NCI-H460 lung
  GI50: 15.5 µM
  TGI: 34.9 µM
SK-MEL-2 melanoma
  GI50: 15.4 µM
  TGI: 30 µM
ACHN renal
  GI50: 17.6 µM
  TGI: 46.5 µM
HOP-92 NSCLC
  GI50: 13.8 µM
  TGI: 33.5 µM
A498 renal
  GI50: 15.9 µM
  TGI: 31 µM
